Experimental data from ChEMBL document CHEMBL4152365, “Discovery of DS-6930, a potent selective PPARγ modulator. Part I: Lead identification” (Bioorg Med Chem, 2018).
In brackets after ≈: the same amount, converted by molar mass. Activity calls are given as the source filed them. The calls are words filed in the database; no cut-off is given here.

Experiments:
Mus musculus [1] = experiment: Toxicity in hyperglycemic KK/Ta mouse assessed as body weight gain at 30 mg/kg/day, po administered through diet for 3 days relative to control; assay type: organism-based; conditions: in vivo, 72 h
[2] = target: T1, Peroxisome proliferator-activated receptor gamma (Homo sapiens, UniProt P37231); experiment: Agonist activity at recombinant human GAL4-DBD fused PPARgamma LBD expressed in COS7 cells after 24 hrs by luciferase reporter gene assay; assay type: cell-based
T1 sequence (P37231 whole entry): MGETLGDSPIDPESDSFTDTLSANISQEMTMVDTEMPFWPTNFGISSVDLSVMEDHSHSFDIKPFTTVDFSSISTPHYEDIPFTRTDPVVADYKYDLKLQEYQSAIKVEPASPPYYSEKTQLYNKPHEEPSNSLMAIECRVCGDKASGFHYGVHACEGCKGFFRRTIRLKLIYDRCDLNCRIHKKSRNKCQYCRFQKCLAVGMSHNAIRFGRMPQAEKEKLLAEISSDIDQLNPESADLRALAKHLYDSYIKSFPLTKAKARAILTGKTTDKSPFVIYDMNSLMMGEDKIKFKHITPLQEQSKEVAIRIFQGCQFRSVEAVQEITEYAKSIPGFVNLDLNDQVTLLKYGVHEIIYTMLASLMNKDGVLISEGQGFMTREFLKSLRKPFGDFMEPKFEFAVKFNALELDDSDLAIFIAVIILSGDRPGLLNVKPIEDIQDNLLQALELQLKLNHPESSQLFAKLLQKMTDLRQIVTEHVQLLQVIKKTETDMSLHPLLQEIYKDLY

[3] = Cmax in Zucker diabetic fatty rat at 3 mg/kg, po dosed once daily for 14 days and followed by additional administeration on day 15; assay type: ADME, organism-based; design: dose 3 mg/kg, route oral; conditions: in vivo
[4] = Metabolic stability in human liver microsomes after 0.5 hrs; assay type: ADME, microsome; conditions: read-out: Stability
[5] = target: T2, Peroxisome proliferator-activated receptor alpha (Homo sapiens, UniProt Q07869); experiment: Agonist activity at recombinant human GAL4-DBD fused PPARalpha LBD expressed in COS7 cells after 24 hrs by luciferase reporter gene assay; assay type: cell-based
T2 sequence (Q07869 whole entry): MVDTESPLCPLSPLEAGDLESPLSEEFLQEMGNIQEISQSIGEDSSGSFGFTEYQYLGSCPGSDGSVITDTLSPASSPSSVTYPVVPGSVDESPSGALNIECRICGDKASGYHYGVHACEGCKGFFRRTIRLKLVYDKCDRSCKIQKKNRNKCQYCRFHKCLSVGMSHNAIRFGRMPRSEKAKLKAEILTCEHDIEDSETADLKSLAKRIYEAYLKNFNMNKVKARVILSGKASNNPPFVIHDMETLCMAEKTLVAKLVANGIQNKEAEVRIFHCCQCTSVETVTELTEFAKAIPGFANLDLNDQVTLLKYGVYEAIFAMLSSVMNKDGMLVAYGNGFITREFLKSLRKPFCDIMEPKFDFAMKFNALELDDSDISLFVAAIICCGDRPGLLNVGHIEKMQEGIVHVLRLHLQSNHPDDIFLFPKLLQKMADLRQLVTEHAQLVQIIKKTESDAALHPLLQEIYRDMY

[6] = 1-octanol/PBS distribution co-efficient, log D of the compound at […] at pH 7.4 after 30 mins by HPLC-MS/MS analysis; assay type: physicochemical
[7] = Tmax in Zucker diabetic fatty rat at 3 mg/kg, po dosed once daily for 14 days and followed by additional administeration on day 15; assay type: ADME, organism-based; conditions: in vivo
Rattus norvegicus [8] = experiment: Toxicity in Zucker diabetic fatty rat assessed as body weight gain at 3 mg/kg, po administered once daily for 14 days relative to control; assay type: organism-based; conditions: in vivo, 336 h
[9] = Metabolic stability in rat liver microsomes after 0.5 hrs; assay type: ADME, microsome; conditions: read-out: Stability
[10] = Plasma concentration in hyperglycemic KK/Ta mouse at 30 mg/kg/day, po administered through diet for 3 days measured on day 3 post last dose; assay type: ADME, organism-based
[11] = AUC (0 to 24 hrs) in Zucker diabetic fatty rat at 3 mg/kg, po dosed once daily for 14 days and followed by additional administeration on day 15; assay type: ADME, organism-based; design: dose 3 mg/kg, time < 24 hr, route oral; conditions: in vivo
Rattus norvegicus [12] = experiment: Glucose-lowering effect in Zucker diabetic fatty rat assessed as reduction in plasma glucose level at 3 mg/kg, po administered once daily for 14 days measured on day 14 post last dose relative to control; assay type: functional; design: scale not given: the % may be the effect or the level left
[13] = target: T3, Peroxisome proliferator-activated receptor gamma (Homo sapiens) (UniProt P37231); experiment: Agonist activity at recombinant human GAL4-DBD fused PPARgamma LBD expressed in COS7 cells at 10 uM after 24 hrs by luciferase reporter gene assay relative to rosiglitazone; assay type: cell-based
T3 sequence (whole entry): T1 sequence (P37231 whole entry)

[14] = target: T4, Peroxisome proliferator-activated receptor alpha (Homo sapiens) (UniProt Q07869); experiment: Agonist activity at recombinant human GAL4-DBD fused PPARalpha LBD expressed in COS7 cells at 10 uM after 24 hrs by luciferase reporter gene assay relative to 2-(4-tert-Butylphenoxy)-3-[4-[2-[(4-pyridin-2-ylbenzoyl)amino]ethoxy]; assay type: cell-based
T4 sequence (whole entry): T2 sequence (Q07869 whole entry)

[15] = Aqueous thermodynamic solubility of the compound in pH 6.8 solution up to 4 hrs by HPLC-UV analysis; assay type: physicochemical; conditions: read-out: Therm_solubility
Mus musculus [16] = experiment: Glucose-lowering effect in hyperglycemic KK/Ta mouse assessed as reduction in plasma glucose level at 30 mg/kg/day, po administered through diet for 3 days relative to control; assay type: functional; design: scale not given: the % may be the effect or the level left
[17] = target: T5, Peroxisome proliferator-activated receptor delta (Homo sapiens) (UniProt Q03181); experiment: Agonist activity at PPARdelta (unknown origin) at 10 uM
T5 sequence (whole entry): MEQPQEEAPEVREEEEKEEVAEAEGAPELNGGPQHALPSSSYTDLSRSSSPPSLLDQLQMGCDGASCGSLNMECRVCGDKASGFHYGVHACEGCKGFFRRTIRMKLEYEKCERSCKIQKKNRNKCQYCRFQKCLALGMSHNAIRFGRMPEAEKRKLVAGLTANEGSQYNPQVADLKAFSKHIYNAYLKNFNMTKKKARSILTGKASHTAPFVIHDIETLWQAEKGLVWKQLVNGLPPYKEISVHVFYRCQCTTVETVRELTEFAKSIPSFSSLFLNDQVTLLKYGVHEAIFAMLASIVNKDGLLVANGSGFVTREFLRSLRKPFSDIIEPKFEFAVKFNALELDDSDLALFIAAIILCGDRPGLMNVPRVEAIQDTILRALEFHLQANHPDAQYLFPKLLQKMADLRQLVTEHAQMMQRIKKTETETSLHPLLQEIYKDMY

[18] = Oral bioavailability in cynomolgus monkey at 3 mg/kg by LC-MS/MS analysis; assay type: ADME, organism-based, Macaca fascicularis; conditions: in vivo
[19] = AUClast in cynomolgus monkey at 3 mg/kg, po by LC-MS/MS analysis; assay type: ADME, organism-based, Macaca fascicularis; design: dose 3 mg/kg, route oral, time 0 - last; conditions: in vivo
[20] = Cmax in cynomolgus monkey at 3 mg/kg, po by LC-MS/MS analysis; assay type: ADME, organism-based, Macaca fascicularis; design: dose 3 mg/kg, route oral; conditions: in vivo
[21] = Half life in cynomolgus monkey at 3 mg/kg, po by LC-MS/MS analysis; assay type: ADME, organism-based, Macaca fascicularis; conditions: in vivo
[22] = Metabolic stability in cynomolgus monkey liver microsomes after 0.5 hrs; assay type: ADME, Macaca fascicularis, microsome; conditions: read-out: Stability
[23] = Volume of distribution at steady state in cynomolgus monkey at 1 mg/kg, iv by LC-MS/MS analysis; assay type: ADME, organism-based, Macaca fascicularis; conditions: in vivo, read-out: Vdss
[24] = Clearance in cynomolgus monkey at 1 mg/kg, iv by LC-MS/MS analysis; assay type: ADME, organism-based, Macaca fascicularis; conditions: in vivo
[25] = Tmax in cynomolgus monkey at 3 mg/kg, po by LC-MS/MS analysis; assay type: ADME, organism-based, Macaca fascicularis; conditions: in vivo

| Structure (SMILES) | EC50 [2] | remaining at 0.5 h [4] | EC50 [5] | logD at 0.5 h [6] | concentration at 72 h [10] | Emax [13] | Emax [14] | solubility thermodynamic at 4 h [15] | Activity [17] | Activity (Mus musculus [1]) | Activity (Mus musculus [16]) | also measured |
| --- | --- | --- | --- | --- | --- | --- | --- | --- | --- | --- | --- | --- |
| Cn1c(COc2cccc(C(=O)O)c2)nc2ccc(Oc3ccc(F)cc3)cc21 | 122 nM | – | > 10000 nM | 2 | 320 ng/mL | 75% | 29% | 19 µg/mL (≈ 48.4 µM) | inactive | 3.4% | 56.7% | – |
| Cn1c(COc2cccc(C(=O)O)c2)nc2ccc(Oc3cccc(F)c3)cc21 | 201 nM | 98% | > 10000 nM | 2 | 1740 ng/mL | 75% | 22% | 2.2 µg/mL (≈ 5.61 µM) | inactive | 3.2% | 52.1% | – |
| Cc1ccc(Oc2ccc3nc(COc4cccc(C(=O)O)c4)n(C)c3c2)c(F)c1 | 92 nM | 92% | > 10000 nM | 2.3 | 550 ng/mL | 90% | 16% | 0.5 µg/mL (≈ 1.23 µM) | – | 2.5% | 53.4% | bioavailability [18]: 24%; Cmax [3]: 300 ng/mL; AUC(0-t) [19]: 2870 ng·h/mL; Cmax [20]: 330 ng/mL; half-life [21]: 16.1 h; Tmax [7]: 2.4 h; Activity (Rattus norvegicus [8]): 8.5%; remaining at 0.5 h [9]: 98%; AUC at 24 h [11]: 3160 ng·h/mL; Activity (Rattus norvegicus [12]): 61.7%; remaining at 0.5 h [22]: 100%; Vd [23]: 1.23 L/kg; clearance [24]: 4.16 mL/min/kg; Tmax [25]: 1.5 h |
| Cl.Cn1c(COc2cccc(C(=O)O)c2)nc2ccc(Oc3cccc(Cl)c3)cc21 | 86 nM | 90% | – | 2.7 | 190 ng/mL | 103% | 69% | – | inactive | 2.8% | 59.6% | – |
| COc1ccccc1Oc1ccc2nc(COc3cccc(C(=O)O)c3)n(C)c2c1.Cl | 474 nM | 74% | > 10000 nM | 1.3 | – | 60% | 4% | 12 µg/mL | inactive | – | – | – |
| Cn1c(COc2cccc(C(=O)O)c2)nc2ccc(Oc3ccc(Cl)cc3)cc21 | 126 nM | – | > 10000 nM | 2.6 | – | 62% | 8% | 2 µg/mL (≈ 4.89 µM) | inactive | 4.1% | 34.4% | – |
| COc1cccc(Oc2ccc3nc(COc4cccc(C(=O)O)c4)n(C)c3c2)c1 | 235 nM | 68% | > 10000 nM | 1.8 | – | 92% | 30% | 5.4 µg/mL (≈ 13.4 µM) | inactive | – | – | – |
| COc1ccc(Oc2ccc3nc(COc4cccc(C(=O)O)c4)n(C)c3c2)cc1 | 307 nM | 100% | > 10000 nM | 1.8 | – | 71% | 7% | 9.3 µg/mL (≈ 23 µM) | inactive | – | – | – |
| Cc1cccc(Oc2ccc3nc(COc4cccc(C(=O)O)c4)n(C)c3c2)c1 | 79 nM | 69% | > 10000 nM | 2.3 | 90 ng/mL | 76% | 19% | 3.8 µg/mL (≈ 9.78 µM) | inactive | 3.2% | 56.9% | – |
| Cn1c(COc2cccc(C(=O)O)c2)nc2ccc(Oc3cccc(OC(F)(F)F)c3)cc21 | 113 nM | 98% | > 10000 nM | 3.3 | 370 ng/mL | 69% | 17% | 0.9 µg/mL (≈ 1.96 µM) | inactive | 5.3% | 41.9% | – |

Stronger by EC50 [2], values ahead:

| EC50 [2] | remaining at 0.5 h [4] | EC50 [5] | logD at 0.5 h [6] | concentration at 72 h [10] | Emax [13] | Emax [14] | solubility thermodynamic at 4 h [15] | Activity [17] | Structure (SMILES) | Activity (Mus musculus [1]) | Activity (Mus musculus [16]) | also measured |
| --- | --- | --- | --- | --- | --- | --- | --- | --- | --- | --- | --- | --- |
| 56 nM | 62% | > 10000 nM | 2.4 | 100 ng/mL | 80% | 16% | 2.2 µg/mL (≈ 5.66 µM) | inactive | Cc1ccccc1Oc1ccc2nc(COc3cccc(C(=O)O)c3)n(C)c2c1 | 3.7% | 26.9% | – |
| 23 nM | 85% | – | 2.8 | 90 ng/mL | 81% | 56% | – | inactive | Cl.Cn1c(COc2cccc(C(=O)O)c2)nc2ccc(Oc3cccc(C(F)(F)F)c3)cc21 | 3.8% | 45.1% | – |
| 22 nM | 59% | > 10000 nM | 2.5 | 190 ng/mL | 66% | 19% | 1.7 µg/mL (≈ 4.18 µM) | – | Cc1cc(F)ccc1Oc1ccc2nc(COc3cccc(C(=O)O)c3)n(C)c2c1 | 2.8% | 54.7% | Cmax [3]: 42 ng/mL; Tmax [7]: 4 h; Activity (Rattus norvegicus [8]): 11.9%; remaining at 0.5 h [9]: 47%; AUC at 24 h [11]: 420 ng·h/mL; Activity (Rattus norvegicus [12]): 22% |
| 21 nM | 62% | > 10000 nM | 2 | 360 ng/mL | 95% | 12% | 16 µg/mL (≈ 38.4 µM) | – | Cn1c(COc2cccc(C(=O)O)c2)nc2ccc(Oc3ccc4c(c3)OCC4)cc21 | 4.8% | 41.6% | Cmax [3]: 80 ng/mL; Tmax [7]: 3.2 h; Activity (Rattus norvegicus [8]): 15.6%; remaining at 0.5 h [9]: 79%; AUC at 24 h [11]: 850 ng·h/mL; Activity (Rattus norvegicus [12]): 69.7% |
